Several values for one entry are separate records, joined by “and”; a condition that tells them apart may be missing. Identical values can stand only once.
Tested on: BDF1 mice, Adenocarcinoma 755 s.c., tumor weight T/C
Experiment: NCI In Vivo Anticancer Drug Screen. Data for tumor model Adenocarcinoma 755 (subcutaneous) in B6D2F1 (BDF1) mice
Conditions: endpoint: mean tumor weight, schedule: Q01DX011 (ip), higher = larger tumour
Description: The antitumor activity of compounds was measured in mice bearing transplantable tumors. Survival or tumor size were measured and the results are expressed as the measurement made in the treated group (T) divided by the measurement made in the vehicle treated control group (C). The tumor model used in this assay is Adenocarcinoma 755 (subcutaneous) in B6D2F1 (BDF1) mice

[1] = dose: 15.0 mg/kg/injection, vehicle: methylcellulose (MC)
[2] = dose: 31.0 mg/kg/injection, vehicle: methylcellulose (MC)
[3] = dose: 62.0 mg/kg/injection, vehicle: methylcellulose (MC)
[4] = dose: 125.0 mg/kg/injection, vehicle: methylcellulose (MC)
[5] = dose: 250.0 mg/kg/injection, vehicle: methylcellulose (MC)
[6] = dose: 75.0 mg/kg/injection, vehicle: methylcellulose (MC)

**Q.** With `CC(=O)OCC1OC(n2cnc3c(N)ncnc32)CC1OC(C)=O` (configuration not stated) as the molecule, how does the T/C (dose: 30.0 mg/kg/injection, vehicle: carboxymethylcellulose (CMC)) read?
**A.** The T/C was 55 % of control and 68 % of control.

**Q.** And the T/C (dose: 120.0 mg/kg/injection, vehicle: carboxymethylcellulose (CMC))?
**A.** The T/C was 97 % of control and 111 % of control.

**Q.** What about the T/C (dose: 240.0 mg/kg/injection, vehicle: carboxymethylcellulose (CMC)) of the same molecule?
**A.** Its T/C is 108 % of control and 109 % of control.

**Q.** How did the T/C (dose: 63.0 mg/kg/injection, vehicle: carboxymethylcellulose (CMC)) turn out when `NC(=O)CSc1nc(N)nc2nc[nH]c12` was run?
**A.** The T/C was 113 % of control.

**Q.** What about the T/C (dose: 125.0 mg/kg/injection, vehicle: carboxymethylcellulose (CMC)) of the same molecule?
**A.** The T/C was 67 % of control.

**Q.** What about the T/C (dose: 250.0 mg/kg/injection, vehicle: carboxymethylcellulose (CMC)) of the same molecule?
**A.** The T/C was 48 % of control.

**Q.** What about the T/C (dose: 500.0 mg/kg/injection, vehicle: carboxymethylcellulose (CMC)) of the same molecule?
**A.** Its T/C is 33 % of control.

**Q.** Which T/C [1] does the source give for `CNc1nc(SCc2ccc(Cl)cc2Cl)ncc1C` here?
**A.** The T/C was 84 % of control.

**Q.** What about the T/C [2] of the same molecule?
**A.** Its T/C is 69 % of control.

**Q.** And the T/C [3]?
**A.** Its T/C is 67 % of control.

**Q.** What about the T/C [4] of the same molecule?
**A.** Its T/C is 73 % of control.

**Q.** What about the T/C [5] of the same molecule?
**A.** The T/C was 61 % of control.

**Q.** Which T/C (dose: 25.0 mg/kg/injection, vehicle: methylcellulose (MC)) does the source give for `O=C(CCBr)N1CCC(CCC2CCN(C(=O)CCBr)CC2)CC1` here?
**A.** The T/C was 94 % of control.

**Q.** And the T/C [6]?
**A.** Its T/C is 68 % of control.

**Q.** What about the T/C (dose: 225.0 mg/kg/injection, vehicle: methylcellulose (MC)) of the same molecule?
**A.** Its T/C is 43 % of control.

**Q.** What does the source list for `CC(C)CSc1nc(N)nc2c1ncn2C1OC(CO)C(O)C1O` (configuration not stated)?
**A.** T/C (dose: 2.32 mg/kg/injection, vehicle: methylcellulose (MC)): 54 % of control; T/C (dose: 4.65 mg/kg/injection, vehicle: methylcellulose (MC)): 37 % of control; T/C (dose: 9.3 mg/kg/injection, vehicle: methylcellulose (MC)): 25 % of control; T/C (dose: 18.75 mg/kg/injection, vehicle: methylcellulose (MC)): 12 % of control and 15 % of control; T/C (dose: 37.5 mg/kg/injection, vehicle: methylcellulose (MC)): 3 % of control; T/C [6]: 2 % of control; T/C (dose: 150.0 mg/kg/injection, vehicle: methylcellulose (MC)): 2 % of control

**Q.** How did the T/C [1] turn out when `CSc1ncc(Br)c(Nc2ccccc2C)n1` was run?
**A.** Its T/C is 94 % of control.

**Q.** And the T/C [2]?
**A.** The T/C was 87 % of control.

**Q.** And the T/C [3]?
**A.** Its T/C is 110 % of control.

**Q.** And the T/C [4]?
**A.** The T/C was 117 % of control.

**Q.** And the T/C [5]?
**A.** Its T/C is 107 % of control.

**Q.** `CCCn1cnc2c(SCCc3ccccc3)nc(N)nc21` was tested. Which T/C (dose: 50.0 mg/kg/injection, vehicle: methylcellulose (MC)) did it give?
**A.** Its T/C is 47 % of control.

**Q.** And the T/C (dose: 100.0 mg/kg/injection, vehicle: methylcellulose (MC))?
**A.** Its T/C is 15 % of control.

**Q.** What about the T/C (dose: 200.0 mg/kg/injection, vehicle: methylcellulose (MC)) of the same molecule?
**A.** The T/C was 18 % of control.

**Q.** Which results are given for `Cc1nc(N2CC2)nc(N2CC2)c1[N+](=O)[O-]`?
**A.** T/C (dose: 0.6 mg/kg/injection, vehicle: methylcellulose (MC)): 47 % of control; T/C (dose: 1.1 mg/kg/injection, vehicle: methylcellulose (MC)): 59 % of control; T/C (dose: 2.25 mg/kg/injection, vehicle: methylcellulose (MC)): 12 % of control

**Q.** What does the source list for `Cc1cc(Nc2ccccc2Br)nc(N)n1`?
**A.** T/C [1]: 65 % of control; T/C [2]: 69 % of control; T/C [3]: 112 % of control; T/C [4]: 78 % of control; T/C [5]: 76 % of control

**Q.** With `[I][Hg][CH2]C1COCC([CH2][Hg][I])O1.[I][Hg][CH2]C1COCC([CH2][Hg][I])O1` (configuration not stated) as the molecule, how does the T/C (dose: 10.0 mg/kg/injection, vehicle: other) read?
**A.** The T/C was 59 % of control.

**Q.** And the T/C (dose: 20.0 mg/kg/injection, vehicle: other)?
**A.** Its T/C is 63 % of control.

**Q.** And the T/C (dose: 40.0 mg/kg/injection, vehicle: other)?
**A.** The T/C was 31 % of control.

**Q.** For `CCOC(=O)C(Cc1ccc(N(CCCl)CCCl)cc1)NP1(=O)NCCCO1` (configuration not stated), which T/C (dose: 36.0 mg/kg/injection, vehicle: saline) is on record?
**A.** Its T/C is 21 % of control.

Source: PubChem BioAssay AID180 (DTP/NCI, 2004)
